pEC50: −log10 of the molar value.
How the values were obtained:
[1] = test system: uninfected quiescent Vero-B cells; experiment: Cytotoxic assay in uninfected quiescent Vero-B cells (MTS/PMS); settings: 4 days (Table 3)
[2] = test system: DENV-2 NGC; experiment: Antiviral activity against DENV-2 NGC in Vero-B cells (viral RNA load by RT-qPCR); format: cell-based, Dengue virus; settings: Dengue virus, DENV2, Vero B, DENV-2 in Vero-B cells; inhibition of viral RNA replication by 50% (Table 3)
[3] = test system: DENV-3 strain H87 prototype; experiment: Antiviral activity against DENV-3 in Vero-B cells (viral RNA load by RT-qPCR); format: cell-based, Dengue virus; settings: Dengue virus, DENV3, Vero B
[4] = test system: DENV-4 strain Dak HD 34 460; experiment: Antiviral activity against DENV-4 in Vero-B cells (viral RNA load by RT-qPCR); format: cell-based, Dengue virus; settings: Dengue virus, DENV4, Vero B
[5] = in vitro; settings: African green monkey, uninfected quiescent Vero-B cells
[6] = test system: DENV-1 Djibouti strain D1/H/IMTSSA/98/606; experiment: Antiviral activity against DENV-1 in Vero-B cells (viral RNA load by RT-qPCR); format: cell-based, Dengue virus; settings: Dengue virus, DENV1, Vero B

Structure (SMILES)	CC50 [1]	pEC50 [2]	pEC50 [3]	pEC50 [4]	CC50 at 4 days [5]	pEC50 [6]
O=C(c1c[nH]c2ccccc12)C(Nc1cccc(OC(F)(F)F)c1)c1ccccc1 (stereo not drawn) [CPD-005]	5000 nM	6.03				
O=C(c1c[nH]c2ccccc12)C(Nc1cccc(F)c1)c1ccccc1 (stereo not drawn) [CPD-008]	12000 nM	5.62				
O=C(c1c[nH]c2ccccc12)C(Nc1cc(F)cc(F)c1)c1ccccc1 (stereo not drawn) [CPD-011]	23000 nM	5.78				
COc1cc(F)cc(NC(C(=O)c2c[nH]c3ccccc23)c2ccccc2)c1 (stereo not drawn) [CPD-015]	22000 nM	7.70				
O=C(c1c[nH]c2ccccc12)C(Nc1cccnc1)c1ccccc1 (stereo not drawn) [CPD-016]	54000 nM	5.30				
COc1cccc(NC(C(=O)c2c[nH]c3ccccc23)c2ccc(S(C)(=O)=O)cc2)c1 (stereo not drawn) [CPD-021]	> 115000 nM	5.79				
COc1cccc(NC(C(=O)c2c[nH]c3ccccc23)c2ccco2)c1 (stereo not drawn) [CPD-023]	16000 nM	6.52				
N#Cc1cccc(NC(C(=O)c2c[nH]c3ccccc23)c2ccccc2)c1 (stereo not drawn) [CPD-035]	14000 nM	5.68				
COc1cccc(NC(C(=O)c2c[nH]c3ccccc23)c2ccc3nccnc3c2)c1 (stereo not drawn) [CPD-037]	19000 nM	5.92				
COc1ccc(OC)c(NC(C(=O)c2c[nH]c3ccccc23)c2ccccc2)c1 (stereo not drawn) [CPD-039]	15000 nM	5.61				
COc1cccc(NC(C(=O)c2c[nH]c3ccccc23)c2ccccc2)c1OC (stereo not drawn) [CPD-040]	> 129000 nM	5.37				
CS(=O)(=O)c1cccc(NC(C(=O)c2c[nH]c3ccccc23)c2ccccc2)c1 (stereo not drawn) [CPD-044]	65000 nM	5.19				
O=C(c1c[nH]c2ccccc12)C(Nc1ccc2[nH]c(=O)oc2c1)c1ccccc1 (stereo not drawn) [CPD-057]	15000 nM	5.22				
COc1ccnc(NC(C(=O)c2c[nH]c3ccccc23)c2ccccc2)c1 (stereo not drawn) [CPD-066]	95000 nM	5.20				
COc1nc(NC(C(=O)c2c[nH]c3ccccc23)c2ccccc2)ns1 (stereo not drawn) [CPD-070]	90000 nM	5.49				
O=C(c1c[nH]c2ccccc12)C(NC1CCCC1)c1ccccc1 (stereo not drawn) [CPD-183]	86000 nM	4.82				
COc1cccc(NC(C(=O)c2c[nH]c3c(F)cccc23)c2ccccc2)c1 (stereo not drawn) [CPD-205]	14000 nM	7.22				
COc1cc(NC(C(=O)c2c[nH]c3ccccc23)c2ccccc2)cc(OCCN(C)C)c1 (stereo not drawn) [CPD-243]	13000 nM	5.77				
COc1cccc(NC(C(=O)c2c[nH]c3ccccc23)c2ccccc2)n1 (stereo not drawn) [CPD-277]	16000 nM	6.54				
COc1cc(NC(C(=O)c2nn(C)c3ccccc23)c2cccnc2)cc(OC)c1 (stereo not drawn) [CPD-279]		6.74	6.05	5.06	> 124000 nM	6.21
COc1cccc(NC(C(=O)c2nn(C)c3cc(F)ccc23)c2ccccc2)c1 (stereo not drawn) [CPD-281]		6.68	5.25	5.95	> 128000 nM	6.07
COc1cc(CO)cc(NC(C(=O)c2c[nH]c3ccccc23)c2cccnc2)c1 (stereo not drawn) [CPD-282]		6.59	5.51	4.88	> 128000 nM	5.91
COc1cc(CO)cc(NC(C(=O)c2c[nH]c3ccccc23)c2ccc(OC)nc2)c1 (stereo not drawn) [CPD-283]		6.77	5.15	5.10	56000 nM	5.55
COc1cc(CO)cc(NC(C(=O)c2c[nH]c3cc(F)ccc23)c2ccccc2)c1 (stereo not drawn) [CPD-285]		7.40	5.66	5.64	50000 nM	6.08
COc1cc(CO)cc(NC(C(=O)c2c[nH]c3ccccc23)c2cnc(OC)cn2)c1 (stereo not drawn) [CPD-288]		6.92	5.57	5.20	77000 nM	5.72
COc1cc(CO)cc(NC(C(=O)c2c[nH]c3ccccc23)c2cc3ccccn3n2)c1 (stereo not drawn) [CPD-289]		7.22	6.04	4.99	68000 nM	6.10

Structure (SMILES)	CC50 [1]	pEC50 [2]	pEC50 [3]	pEC50 [4]	CC50 at 4 days [5]	pEC50 [6]
COc1cc(NC(C(=O)c2c[nH]c3ccccc23)c2ccc(OC)nc2)cc(OCCO)c1 (stereo not drawn) [CPD-291]		7.22	6.10	5.06	53000 nM	6.10
COc1cc(NC(C(=O)c2c[nH]c3ccccc23)c2cnc(OC)cn2)cc(OCCO)c1 (stereo not drawn) [CPD-292]		7.22	5.95	5.15	68000 nM	6.08
COc1cccc(NC(C(=O)c2c[nH]c3ccc(F)cc23)c2cnc(OC)cn2)c1 (stereo not drawn) [CPD-295]		7.52	5.86	5.20	18000 nM	6.47
COc1cc(CO)cc(NC(C(=O)c2c[nH]c3ccc(F)cc23)c2ccccc2)c1 (stereo not drawn) [CPD-296]		7.30	5.74	5.48	31000 nM	6.00
COc1cc(NC(C(=O)c2nn(C)c3ccccc23)c2ccccc2)cc(OCCO)c1 (stereo not drawn) [CPD-298]		6.38	5.24	5.34	> 116000 nM	5.69
COc1cccc(NC(C(=O)c2c[nH]c3ccccc23)c2ccccn2)c1 (stereo not drawn) [CPD-301]		7.10	6.30	5.37	89000 nM	5.95
COc1cc(NC(C(=O)c2cn(C)c3ccccc23)c2ccccc2)cc(OCCO)c1 (stereo not drawn) [CPD-305]		7.05	5.99	5.59	> 116000 nM	6.36
COc1cccc(NC(C(=O)c2c[nH]c3ccccc23)c2cncc(C)c2)c1 (stereo not drawn) [CPD-309]		6.27	6.15	5.55	74000 nM	6.21
COc1ccc(C(Nc2cccc(OC)c2)C(=O)c2c[nH]c3ccccc23)nc1 (stereo not drawn) [CPD-310]		7.22	6.19	5.03	25000 nM	5.95
COc1cc(CO)cc(NC(C(=O)c2c[nH]c3ccccc23)c2ccc(F)cc2)c1 (stereo not drawn) [CPD-313]		7.40	5.95	5.23	58000 nM	6.14
COc1cccc(NC(C(=O)c2c[nH]c3ccccc23)c2ccc(C#N)nc2)c1 (stereo not drawn) [CPD-314]		6.68	5.55	5.06	50000 nM	5.77
COc1cccc(NC(C(=O)c2c[nH]c3ccccc23)c2ccc(C(F)(F)F)nc2)c1 (stereo not drawn) [CPD-315]		7.30	6.00	5.71	13000 nM	6.42
COc1cc(NC(C(=O)c2c[nH]c3cc(F)ccc23)c2ccccc2)cc(OCCO)c1 (stereo not drawn) [CPD-316]		7.70	6.49	5.35	29000 nM	6.41
COc1cccc(NC(C(=O)c2c[nH]c3ccccc23)c2cccnn2)c1 (stereo not drawn) [CPD-317]		6.24	4.89	4.97	88000 nM	5.38
COc1cc(CO)cc(NC(C(=O)c2c[nH]c3c(C)cccc23)c2ccccc2)c1 (stereo not drawn) [CPD-318]		7.22	5.63	4.96	54000 nM	6.66
COc1cc(NC(C(=O)c2c[nH]c3ccccc23)c2ccccc2)cc(OC)n1 (stereo not drawn) [CPD-319]		6.92	5.77	5.64	20000 nM	5.55
COc1cccc(NC(C(=O)c2c[nH]c3ccccc23)c2cncc(F)c2)c1 (stereo not drawn) [CPD-321]		6.96	6.49	5.56	33000 nM	6.40
COc1cccc(NC(C(=O)c2c[nH]c3c(C)cccc23)c2cc3ccccn3n2)c1 (stereo not drawn) [CPD-329]		8.00	6.49	5.53	41000 nM	6.57
COc1cc(NC(C(=O)c2c[nH]c3c(C)cccc23)c2ccccc2)cc(OCCO)c1 (stereo not drawn) [CPD-331]		7.70	6.41	5.48	14000 nM	6.41
COc1cccc(NC(C(=O)c2c[nH]c3c(C)cccc23)c2ccc(OC)nc2)c1 (stereo not drawn) [CPD-332]		7.40	5.87	5.55	20000 nM	6.14
COc1cc(CO)cc(NC(C(=O)c2c[nH]c3ccccc23)c2ccc(F)nc2)c1 (stereo not drawn) [CPD-333]		7.40	6.31	5.23	90000 nM	6.41
COc1cc(NC(C(=O)c2c[nH]c3ccccc23)c2ccc(OC)nc2)cc(OC)c1 (stereo not drawn) [CPD-335]		7.70	6.38	5.62	18000 nM	6.49
COc1cc(NC(C(=O)c2c[nH]c3c(C)cccc23)c2ccccc2)cc(OC)c1 (stereo not drawn) [CPD-337]		8.30	6.64	6.02	15000 nM	7.05
COc1cc(NC(C(=O)c2c[nH]c3c(CCO)cccc23)c2ccccc2)cc(OC)c1 (stereo not drawn) [CPD-339]		7.05	6.09	5.53	19000 nM	6.09
COc1cc(NC(C(=O)c2c[nH]c3cccc(CCCO)c23)c2ccccc2)cc(OC)c1 (stereo not drawn) [CPD-357]	55000 nM	5.87				

From patent US12012411B2, “Viral replication inhibitors” (Katholieke Universiteit Leuven, priority 2011, dated 2024)
